This note sets out measurements from ChEMBL document CHEMBL1201862, “PubChem BioAssay data set” (2004).

Holding throughout (assay): inhibition of tumour cell growth, NCI panel, 48 h
For assay [1], the system named is KM12.
Assay [2] deals with DLD-1.
For assay [3], the system named is K562.
In assay [4] the test system is SF-268.
For assay [5], the system named is U-251.
Assay [6] has as its system SF-539.
In assay [7] the test system is SK-OV-3.
Assay [8] has as its system HL-60.
The subject of assay [9] is CAKI-1.
In assay [10] the test system is SK-MEL-5.
The test system of assay [11] is HOP-92.
Assay [12] concerns COLO 205.
The subject of assay [13] is ACHN.
Assay [14] deals with M14.
Assay [15] has as its system SK-MEL-2.
Assay [16] concerns Hs-578T.
The test system of assay [17] is DU-145.
For assay [18], the system named is MCF7.
Assay [19] deals with PC-3.
The test system of assay [20] is BT-549.

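Results reflect a 48-hour exposure of cells in 96-well plates to compound at five concentrations. Abbreviation: GI50, concentration required for 50% inhibition of growth.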 Activity calls are given as the source filed them. Cut-off read from the data, not from the text of the source: active = GI50 up to about 1.1 µM and inactive = higher.

Turning to `Cc1ccc(-c2c(N)nc(NC#N)nc2CCC(=O)Nc2ccccc2[N+](=O)[O-])cc1`, the GI50 in assay [1], in assay [2], in [3], in assay [4], in assay [5] and in assay [6] was > 100 µM (inactive) each time. Also, the GI50 in [7], in [8], in assay [9], in assay [10], in [11] and in assay [12] was > 100 µM (inactive) throughout. In addition, the GI50 in assay [13], in [14] and in assay [15] was > 100 µM (inactive) each time.
`C[C@@H]1O[C@@H](O[C@H]2[C@H](Oc3cc(O)c4c(=O)cc(-c5ccc(O)cc5)oc4c3)O[C@H](CO)[C@@H](O)[C@@H]2O)[C@H](O)[C@H](O)[C@H]1O` [RHOIFOLIN]: the GI50 in assay [1], in [2], in assay [3], in [4], in assay [5] and in [6] was > 100 µM (inactive) in each case. The GI50 in assay [7], in assay [8], in assay [9], in assay [10], in assay [11] and in assay [12] was > 100 µM (inactive) each time. Also, the GI50 in [13], in [14] and in assay [15] was > 100 µM (inactive) throughout.
Take `Cc1ccc(C(=O)c2nnc(C(=O)c3ccc(C)cc3)nn2)cc1`: the GI50 in assay [1] is 62.7 µM (inactive); in assay [2], 43.2 µM (inactive); in assay [3], 23.3 µM (inactive); in [4], 21 µM (inactive); in assay [5], 40.7 µM (inactive); in assay [6] it was 38.9 µM (inactive). Besides, the GI50 in assay [7] is 19.3 µM (inactive); in assay [8], 19.7 µM (inactive); in assay [9], 74.3 µM (inactive); in [10], 50.9 µM (inactive); in [11], 32.1 µM (inactive); in [12], 70.1 µM (inactive). Moreover, the figures for the GI50 in assay [13], in [14] and in [15] were 76 µM (inactive), 22.2 µM (inactive) and 38.4 µM (inactive), respectively.
In the case of `CN(C)/N=N/c1[nH]cnc1C(N)=O` [DACARBAZINE], the GI50 in assay [1] is 92.7 µM (inactive); in [2], 56.9 µM (inactive); in assay [16], 63 µM (inactive); in [3] it was 16 µM (inactive); in [17], 71.9 µM (inactive); in assay [4], 63.8 µM (inactive). In addition, the GI50 was 92 µM (inactive) in assay [5]; 89.7 µM (inactive) in assay [18]; 65.6 µM (inactive) in [6]; 20.6 µM (inactive) in assay [7]; > 96.4 µM (inactive) in assay [19]; 14.9 µM (inactive) in assay [8]. Besides, the GI50 is 19 µM (inactive) in [9]; 74.6 µM (inactive) in [10]; 30.3 µM (inactive) in assay [11]; 78.9 µM (inactive) in assay [12]; 27.2 µM (inactive) in assay [14]; 51.3 µM (inactive) in [20]. Further, the GI50 in assay [15] is 9.82 µM (inactive).
On to `Cc1ccc(C(=O)N(C2CCCCC2)C2CCCCC2)cc1/N=N/N(C)C`, for which the GI50 was 6.71 µM (inactive) in assay [1]; 14.7 µM (inactive) in assay [2]; 21.3 µM (inactive) in [16]; 8.28 µM (inactive) in assay [3]; > 10 µM (inactive) in [17]; 10.8 µM (inactive) in [4]. In addition, the GI50 in [5] was 18.4 µM (inactive); in assay [18], 14.9 µM (inactive); in assay [6] it was 19.5 µM (inactive); in assay [7], 17.8 µM (inactive); in assay [19], 10.4 µM (inactive); in assay [8], 6.07 µM (inactive). Moreover, the GI50 in assay [9] is 12.9 µM (inactive); in [10], 14.3 µM (inactive); in [11] it was 11 µM (inactive); in assay [12], 17.7 µM (inactive); in [13], 8.83 µM (inactive); in [14] it was 17.6 µM (inactive). In addition, the GI50 in [20] is 13.9 µM (inactive); in assay [15], 2.76 µM (inactive).
With `CCOC(=O)N1c2c(ccn2C)-c2ccn(C)c2N1C(=O)OCC`, the GI50 was 19.9 µM (inactive) in assay [1]; 13.6 µM (inactive) in assay [2]; 4.2 µM (inactive) in assay [3]; 19.1 µM (inactive) in [4]; 20 µM (inactive) in [6]; 30.6 µM (inactive) in assay [7]. For the same compound, the GI50 in assay [8] is 5.09 µM (inactive); in assay [9], 18.3 µM (inactive); in assay [10] it was > 100 µM (inactive); in assay [11], 20.6 µM (inactive); in assay [12], 22.7 µM (inactive); in assay [13], 15.8 µM (inactive). The figures for the GI50 in [14] and in assay [15] were 15.1 µM (inactive) and 21.4 µM (inactive), respectively.
With `CCOC(=O)C1C(c2ccccc2)=C(c2ccccc2)C(c2ccccc2)=C1c1ccccc1`, the GI50 in [1] is > 100 µM (inactive); in assay [2] it was > 100 µM (inactive); in assay [3], 35 µM (inactive); in [4], 43 µM (inactive); in [5], 21.2 µM (inactive); in assay [6] it was 29.7 µM (inactive). In addition, the GI50 was 22.6 µM (inactive) in assay [7]; 57.1 µM (inactive) in assay [8]; > 65.3 µM (inactive) in [9]; 46.7 µM (inactive) in [10]; 12.4 µM (inactive) in [11]; > 100 µM (inactive) in assay [12]. In addition, the GI50 was 28.6 µM (inactive) in assay [13], 57.4 µM (inactive) in [14] and 26.9 µM (inactive) in assay [15].
With `CN1CCN(CCSC2Cc3cc(Cl)ccc3Sc3ccccc32)CC1` (configuration not stated), the GI50 in assay [1] is 3.46 µM (inactive); in [2] it was 3.7 µM (inactive); in [3], 1.71 µM (inactive); in [4], 8.47 µM (inactive); in [5] it was 5.4 µM (inactive); in [6], 3.15 µM (inactive). For the same compound, the GI50 is 16.7 µM (inactive) in assay [7]; 1.73 µM (inactive) in [8]; 6.67 µM (inactive) in assay [9]; 3.26 µM (inactive) in assay [10]; 4.5 µM (inactive) in [11]; 1.74 µM (inactive) in assay [12]. The GI50 is 8.36 µM (inactive) in assay [13], 1.91 µM (inactive) in assay [14] and 1.86 µM (inactive) in [15].
As to `CCOC(=O)N[C@H]1CCc2cc(O)c(OC)c(OC)c2-c2ccc(SC)c(=O)cc21`, the GI50 is 0.0154 µM (active) in assay [1]; 0.0351 µM (active) in assay [2]; 0.0136 µM (active) in [3]; 0.0207 µM (active) in assay [4]; < 0.0162 µM (active) in assay [5]; 0.0137 µM (active) in assay [6]. For the same compound, the GI50 is 0.24 µM (active) in assay [7]; < 0.01 µM (active) in [8]; 0.0266 µM (active) in [9]; 0.0127 µM (active) in assay [10]; 0.0103 µM (active) in [11]; 0.141 µM (active) in [12]. Also, the results for the GI50 in assay [13], in assay [14] and in [15] were 0.069 µM (active), < 0.01 µM (active) and < 0.0149 µM (active), respectively.
On to `O=C(N[C@H](CO)[C@H](O)c1ccc([N+](=O)[O-])cc1)C(Cl)Cl` [CHLORAMPHENICOL], for which the GI50 in assay [1], in assay [2], in [3], in assay [17], in assay [4] and in [5] was > 100 µM (inactive) in each case. The GI50 in assay [18], in assay [6], in assay [7], in [19], in assay [8] and in [9] was > 100 µM (inactive) each time. Besides, the GI50 in assay [10] was > 100 µM (inactive); in assay [11], 85.3 µM (inactive); in assay [12], > 100 µM (inactive); in [13] it was > 100 µM (inactive); in [14] it was > 100 µM (inactive); in assay [20], > 100 µM (inactive). Besides, the GI50 in assay [15] is > 100 µM (inactive).
For the compound `CN(C)CCC(=O)N1C/C(=C\c2ccc(Cl)c(Cl)c2)C(=O)/C(=C/c2ccc(Cl)c(Cl)c2)C1`, the GI50 in assay [1] is 0.279 µM (active); in assay [2], 0.157 µM (active); in assay [16] it was 0.257 µM (active); in assay [3], 0.038 µM (active); in assay [17] it was 0.224 µM (active); in [4], 0.309 µM (active). Also, the GI50 in [5] is 0.149 µM (active); in assay [18], 0.14 µM (active); in assay [6], 0.274 µM (active); in [7], 1.86 µM (inactive); in [19], 0.102 µM (active); in assay [8] it was 0.0435 µM (active). The GI50 in [9] is 0.394 µM (active); in assay [10], 0.453 µM (active); in [11], 0.394 µM (active); in assay [12], 0.223 µM (active); in assay [13], 0.329 µM (active); in [14] it was 0.291 µM (active). The GI50 in assay [20] is 0.426 µM (active); in assay [15], 1.63 µM (inactive).
With `NC(=O)c1cc(C2OC(CO)C(O)C2O)nn1-c1ccc([N+](=O)[O-])cc1` (configuration not stated), the GI50 in assay [1], in [2], in assay [3], in assay [4], in assay [5] and in assay [6] was > 100 µM (inactive) throughout. Further, the GI50 in [7], in assay [8], in assay [9], in assay [10], in assay [11] and in [12] was > 100 µM (inactive) throughout. Moreover, the GI50 in assay [13], in [14] and in assay [15] was > 100 µM (inactive) in each case.
